Assay results taken from ChEMBL document CHEMBL1140590, “3-(2'-Bromopropionylamino)-benzamides as novel S-phase arrest agents” (Bioorg Med Chem Lett, 2007).

What was measured:
MOLT-3 = test: Antiproliferative activity against human Molt3 cells; assay type: functional, cell-based
MCF7 = test: Antiproliferative activity against human MCF7 cells; assay type: functional, cell-based
Bel-7402 = test: Antiproliferative activity against human Bel7402 cells; assay type: functional, cell-based
DU-145 = test: Antiproliferative activity against human DU145 cells; assay type: functional, cell-based
PC-3 = test: Antiproliferative activity against human PC3 cells; assay type: functional, cell-based
[1] = Antiproliferative activity against human DND1 cells; assay type: functional, cell-based
CEM (Homo sapiens) [2] = test: Cell cycle arrest in human CEM cells by accumulation at S phase after 6 hrs at 6.14 uM
CEM (Homo sapiens) [3] = test: Cell cycle arrest in human CEM cells by accumulation at S phase after 24 hrs at 6.14 uM
CEM (Homo sapiens) [4] = test: Cell cycle arrest in human CEM cells by accumulation at S phase after 6 to 12 hrs at 6.14 uM

Question: With COc1ccc(NC(=O)c2cccc(NC(=O)C(C)Br)c2)cc1 (stereo unspecified) as the compound, how does the IC50 (MOLT-3) read?
Answer: 800 nM

Question: For CCCCNC(=O)c1cccc(NC(=O)C(C)Br)c1 (stereo unspecified), which IC50 (MOLT-3) is on record?
Answer: > 10000 nM

Question: Which IC50 (MOLT-3) does the source give for COc1cc(NC(=O)c2cccc(NC(=O)C(C)Br)c2)ccc1O (stereo unspecified) here?
Answer: 510 nM

Question: And the IC50 (MCF7)?
Answer: 860 nM

Question: And the IC50 (Bel-7402)?
Answer: 5260 nM

Question: And the IC50 (DU-145)?
Answer: 6480 nM

Question: And the IC50 (PC-3)?
Answer: 3130 nM

Question: And the IC50 [1]?
Answer: 1220 nM

Question: With CC(Br)C(=O)Nc1cccc(C(=O)Nc2ccc3c(c2)OCO3)c1 (stereo unspecified) as the compound, how does the IC50 (MOLT-3) read?
Answer: 620 nM

Question: For COc1cc(NC(=O)c2cccc(NC(=O)C(C)Br)c2)cc(OC)c1 (stereo unspecified), which IC50 (MOLT-3) is on record?
Answer: 610 nM

Question: Which IC50 (MOLT-3) does the source give for COc1cc(NC(=O)c2cccc(NC(=O)C(C)Br)c2)cc(OC)c1OC (stereo unspecified) here?
Answer: 670 nM

Question: And the IC50 (MCF7)?
Answer: 1470 nM

Question: What about the IC50 (Bel-7402) of the same compound?
Answer: 2640 nM

Question: And the IC50 (DU-145)?
Answer: 1930 nM

Question: And the IC50 (PC-3)?
Answer: 2460 nM

Question: What about the IC50 [1] of the same compound?
Answer: 2260 nM

Question: Which IC50 (MOLT-3) does the source give for COc1ccc(C(=O)Nc2cc(OC)c(OC)c(OC)c2)cc1NC(=O)C(C)Br (stereo unspecified) here?
Answer: 4240 nM

Question: For CC(Br)C(=O)Nc1cccc(C(=O)NC(N)=O)c1 (stereo unspecified), which IC50 (MOLT-3) is on record?
Answer: 1600 nM

Question: With CC(Br)C(=O)Nc1cccc(C(=O)Nc2ccc(F)cc2)c1 (stereo unspecified) as the compound, how does the IC50 (MOLT-3) read?
Answer: 2000 nM

Question: With CCOc1ccc(NC(=O)c2cc(NC(=O)C(C)Br)ccc2F)cc1 (stereo unspecified) as the compound, how does the IC50 (MOLT-3) read?
Answer: > 10000 nM

Question: Which IC50 (MOLT-3) does the source give for COc1cc(NC(=O)c2cc(NC(=O)C(C)Br)ccc2O)cc(OC)c1OC (stereo unspecified) here?
Answer: 1080 nM

Question: For COc1cc(NC(=O)c2cc(NC(=O)C(C)Br)ccc2F)ccc1O (stereo unspecified), which IC50 (MOLT-3) is on record?
Answer: 850 nM

Question: Which IC50 (MOLT-3) does the source give for CCCNC(=O)c1cccc(NC(=O)C(C)Br)c1 (stereo unspecified) here?
Answer: 8940 nM

Question: With COc1ccc2nc(NC(=O)c3cccc(NC(=O)C(C)Br)c3)sc2c1 (stereo unspecified) as the compound, how does the IC50 (MOLT-3) read?
Answer: 1660 nM

Question: With COc1cc(C(=O)Nc2cccc(NC(=O)C(C)Br)c2)cc(OC)c1OC (stereo unspecified) as the compound, how does the IC50 (MOLT-3) read?
Answer: 5660 nM

Question: For COc1cc(NC(=O)c2ccc(NC(=O)C(C)Br)cc2)cc(OC)c1OC (stereo unspecified), which IC50 (MOLT-3) is on record?
Answer: 1790 nM

Question: With COc1cc(NC(=O)c2ccccc2NC(=O)C(C)Br)cc(OC)c1OC (stereo unspecified) as the compound, how does the IC50 (MOLT-3) read?
Answer: 5720 nM

Question: With COc1cc(NC(=O)NC(=O)c2cccc(NC(=O)C(C)Br)c2)cc(OC)c1OC (stereo unspecified) as the compound, how does the IC50 (MOLT-3) read?
Answer: 4220 nM

Question: With COc1cc(NC(=O)c2cc(NC(=O)C(C)Br)ccc2F)cc(OC)c1OC (stereo unspecified) as the compound, how does the IC50 (MOLT-3) read?
Answer: 420 nM

Question: What about the IC50 (MCF7) of the same compound?
Answer: 2110 nM

Question: What about the IC50 (Bel-7402) of the same compound?
Answer: 2050 nM

Question: And the IC50 (DU-145)?
Answer: 2030 nM

Question: What about the IC50 (PC-3) of the same compound?
Answer: 2180 nM

Question: And the IC50 [1]?
Answer: 4160 nM

Question: For COc1cc(NC(=O)c2ccc(F)c(NC(=O)C(C)Br)c2)cc(OC)c1OC (stereo unspecified), which IC50 (MOLT-3) is on record?
Answer: 2200 nM

Question: Which IC50 (MOLT-3) does the source give for COc1cc(NC(=O)c2ccc(Cl)c(NC(=O)C(C)Br)c2)cc(OC)c1OC (stereo unspecified) here?
Answer: 2250 nM

Question: Which IC50 (MOLT-3) does the source give for COc1ccc(NC(=O)c2cc(NC(=O)C(C)Br)ccc2F)cc1 (stereo unspecified) here?
Answer: 250 nM

Question: What about the IC50 (MCF7) of the same compound?
Answer: 1390 nM

Question: And the IC50 (Bel-7402)?
Answer: 3370 nM

Question: And the IC50 (DU-145)?
Answer: 6450 nM

Question: What about the IC50 (PC-3) of the same compound?
Answer: 2430 nM

Question: And the IC50 [1]?
Answer: 2560 nM

Question: Which IC50 (MOLT-3) does the source give for CC(Br)C(=O)Nc1cccc(C(=O)Nc2ccc3[nH]c4ccccc4c3c2)c1 (stereo unspecified) here?
Answer: 1510 nM

Question: For COc1cc(NS(=O)(=O)c2cccc(NC(=O)C(C)Br)c2)cc(OC)c1OC (stereo unspecified), which IC50 (MOLT-3) is on record?
Answer: 1270 nM

Question: For COc1cc(NC(=O)c2cc(NC(=O)C(C)Br)ccc2F)ccn1 (stereo unspecified), which IC50 (MOLT-3) is on record?
Answer: 500 nM

Question: What about the IC50 (MCF7) of the same compound?
Answer: 2200 nM

Question: And the IC50 (Bel-7402)?
Answer: 2700 nM

Question: And the IC50 (DU-145)?
Answer: 2350 nM

Question: What about the IC50 (PC-3) of the same compound?
Answer: 2420 nM

Question: What about the IC50 [1] of the same compound?
Answer: 2570 nM

Question: Which IC50 (MOLT-3) does the source give for COc1ccc(NC(=O)c2cc(NC(=O)C(C)Br)ccc2F)cc1OC (stereo unspecified) here?
Answer: 470 nM

Question: With CC(Br)C(=O)Nc1cccc(C(=O)NCCN(C)C)c1 (stereo unspecified) as the compound, how does the IC50 (MOLT-3) read?
Answer: > 10000 nM

Question: Which IC50 (MOLT-3) does the source give for CC(Br)C(=O)Nc1cccc(C(=O)N2CCN(C)CC2)c1 (stereo unspecified) here?
Answer: > 10000 nM

Question: Which IC50 (MOLT-3) does the source give for COc1ccc(NC(=O)c2cccc(NC(=O)C(C)Br)c2)cc1OC (stereo unspecified) here?
Answer: 120 nM

Question: What about the IC50 (MCF7) of the same compound?
Answer: 1230 nM

Question: And the IC50 (Bel-7402)?
Answer: 2330 nM

Question: What about the IC50 (DU-145) of the same compound?
Answer: 1870 nM

Question: And the IC50 (PC-3)?
Answer: 2360 nM

Question: What about the IC50 [1] of the same compound?
Answer: 1400 nM

Question: And the Activity (CEM (Homo sapiens) [2])?
Answer: 52.9%

Question: What about the Activity (CEM (Homo sapiens) [3]) of the same compound?
Answer: 61.9%

Question: And the Activity (CEM (Homo sapiens) [4])?
Answer: 62.7%

Question: Which IC50 (MOLT-3) does the source give for COc1ccc(/C=C\c2cc(OC)c(OC)c(OC)c2)cc1O [COMBRETASTATIN A4] here?
Answer: 90 nM

Question: And the IC50 (DU-145)?
Answer: 9 nM

Question: What about the IC50 [1] of the same compound?
Answer: 3 nM

Question: For COc1cc([C@@H]2c3cc4c(cc3[C@H](O)[C@H]3COC(=O)[C@H]23)OCO4)cc(OC)c1OC [PODOFILOX], which IC50 [1] is on record?
Answer: 12 nM
